Experimental data: US20100160255A1, “SPIRO-CYCLIC COMPOUND” (Takeda Pharmaceutical Company Limited, priority 2005, published 2010)

Target: T1, human ACC1 (Homo sapiens, UniProt Q13085)
T1 construct: made in house; host or cells: SF-9 insect cells, recombinant baculovirus BAC-ACC1
Assay: ACC1 inhibitory activity (malachite green absorbance assay, recombinant enzyme)
Type: biochemical
Details: Experimental Example 3; same manner as Experimental Example 1; read-out: IC50 values (ACC1 inhibitory activity)
Method: The ACC1 inhibitory activity of the compound of the present invention was evaluated by the following method.
Human ACC1 gene was cloned by PCR using human liver cDNA library (Clontech) as a template, and Primer 1 and Primer 2 shown below. Primer 1 and Primer 2 were prepared by adding recognition sequence of restriction enzymes SalI and NotI based on the information of the base sequence (Genbank Accession U19822) of human ACC1 gene.
PCR was performed using Pyrobest DNA polymerase (TAKARA BIO INC.). The obtained PCR product was cloned to pT7 Blue vector (Novagen) which was, after confirmation of the base sequence, digested with restriction enzymes SalI and NotI. The obtained DNA fragment was inserted into pFAST-BacHTc (Invitrogen) digested with restriction enzymes SalI and NotI to give expression plasmid ACC1/pFAST-BacHTc.
Using the expression plasmid and BAC-TO-BAC Baculovirus Expression System (Invitrogen), virus stock BAC-ACC1 of recombinant Baculovirus was prepared.
SF-9 cells (Invitrogen) were sown at 1×10^6 cells/mL to insect cell culture medium (1 L, Sf-900II SFM medium (Invitrogen) containing 10% fetal bovine serum (Trace), 50 mg/L gentamicin (Invitrogen) and 0.1% Pluronic F-68 (Invitrogen)), and shaking culture was performed using a 2 L volume Erlenmeyer flask at 27° C., 100 rpm.
After culturing for 24 hr, the recombinant Baculovirus BAC-ACC1 (10 mL) was added, and the mixture was further cultured for 3 days. The culture medium was centrifuged at 1000×g for 5 min to give virus-infected cells. The infected cells were washed with phosphate buffered saline (Invitrogen) and centrifuged under the same conditions, and the obtained cells were cryopreserved at −80° C.
The cryopreserved cells were thawed in ice, suspended in 25 mM HEPES buffer (100 mL, pH 7.5) containing 10% Glycerol, 0.13 M NaCl, 1 mM EDTA, 25 mM sodium β-glycerophosphate, 1 mM sodium orthovanadate, added with Complete Protease Inhibitor (Boehringer). The obtained suspension was homogenized 3 times with a Polytron homogenizer (Kinematica) at 20,000 rpm for 30 seconds. The obtained cell disrupt solution was clarified by centrifugation at 185700×g for 50 min and filtrated using a 0.45 μm filter. The filtrate was passed through a column packed with Ni-NTA Super Flow Gel (QIAGEN, 12 mL) at a flow rate of about 5 mL/min. The column was washed with buffer A (50 mM HEPES containing 0.3M NaCl, pH 7.5), further washed with buffer A containing 20 mM Imidazole, and eluted with buffer A containing 100 mM Imidazole. The eluate was concentrated with Vivaspin 20 (Vivascience) having a molecular weight cut off of 30 K. The obtained concentrate was dialyzed using Sephadex G-25 (Amersham Bioscience K.K., 358 mL) equilibrated with 50 mM HEPES (pH7.5) containing 10 mM MgCl2, 2 mM dithiothreitol, 10 mM tripotassium citrate and 0.3M NaCl. The dialysate was concentrated with Vivaspin 20 (Vivascience) having a molecular weight cut off of 30 K and the concentrate was filtered through a 0.22 μm filter to give ACC1. The obtained ACC1 was cryopreserved at −80° C.
ACC1 (0.93 mg/ml) obtained in (2) above was diluted to a concentration of 8 μg/ml with an enzyme reaction buffer (50 mM HEPES (pH7.5), 10 mM MgCl2, 10 mM tripotassium citrate, 2 mM dithiothreitol, 0.75 mg/ml fatty acid free BSA), and added to each well of a 384 well assay plate (Nunc 265196) by 10 μl. […]

IC50, ≤ 100 nM:
CCNC(=O)Nc1sc2ccccc2c1C(=O)N1CCC(N2CCNC3(C2)CC(C)(C)OC3=O)CC1 (centres unmarked) [Example 184, 1-(3-{[4-(3,3-dimethyl-1-oxo-2-oxa-6,9-diazaspiro[4.5]dec-9-yl)piperidin-1-yl]carbonyl}-1-benzothien-2-yl)-3-ethylurea]
CCNC(=O)Nc1sc2ccccc2c1C(=O)N1CCC(N2CCCC3(CC(C)N(CCO)C3=O)C2)CC1 (centres unmarked) [Example 187, 1-ethyl-3-[3-({4-[2-(2-hydroxyethyl)-3-methyl-1-oxo-2,7-diazaspiro[4.5]dec-7-yl]piperidin-1-yl}carbonyl)-1-benzothien-2-yl]urea]
CC1(C)CC2(CCCN(C3CCN(C(=O)c4c(NC(N)=O)sc5ccccc45)CC3)C2)C(=O)O1 (centres unmarked) [Example 290, N-(3-{[4-(3,3-dimethyl-1-oxo-2-oxa-7-azaspiro[4.5]dec-7-yl)piperidin-1-yl]carbonyl}-1-benzothien-2-yl)urea]
Cc1c(C(=O)OC(C)(C)C)sc(NC(N)=O)c1C(=O)N1CCC(N2CCCC3(C2)CC(C)(C)OC3=O)CC1 (centres unmarked) [Example 291, tert-butyl 5-[(aminocarbonyl)amino]-4-{[4-(3,3-dimethyl-1-oxo-2-oxa-7-azaspiro[4.5]dec-7-yl)piperidin-1-yl]carbonyl}-3-methylthiophene-2-carboxylate]
CNC(=O)Nc1sc2ccccc2c1C(=O)N1CCC(N2CCCC3(C2)CC(C)(C)OC3=O)CC1 (centres unmarked) [Example 324, N-(3-{[4-(3,3-dimethyl-1-oxo-2-oxa-7-azaspiro[4.5]dec-7-yl)piperidin-1-yl]carbonyl}-1-benzothien-2-yl)-N′-methylurea]
CCNC(=O)Nc1sc2ccccc2c1C(=O)N1CCC(N2CCCC3(C2)OC(=O)N(C(C)(C)C)C3=O)CC1 (centres unmarked) [Example 350, N-(3-{[4-(3-tert-butyl-2,4-dioxo-1-oxa-3,7-diazaspiro[4.5]dec-7-yl)piperidin-1-yl]carbonyl}-1-benzothien-2-yl)-N′-ethylurea]
CCNC(=O)Nc1sc2ccccc2c1C(=O)N1CCC(N2CCCC3(C2)N=C(CC)N(CC)C3=O)CC1 (centres unmarked) [Example 354, N-(3-{[4-(2,3-diethyl-4-oxo-1,3,7-triazaspiro[4.5]dec-1-en-7-yl)piperidin-1-yl]carbonyl}-1-benzothien-2-yl)-N′-ethylurea]
CCN1C(=O)C2(CCCN(C3CCN(C(=O)c4c(NC(N)=O)sc5ccccc45)CC3)C2)N=C1C(C)C (centres unmarked) [Example 357, N-(3-{[4-(3-ethyl-2-isopropyl-4-oxo-1,3,7-triazaspiro[4.5]dec-1-en-7-yl)piperidin-1-yl]carbonyl}-1-benzothien-2-yl)urea]
